Test results published in US9765154B2, “Phosphohistidine analogs” (THE ROCKEFELLER UNIVERSITY, priority 2010, dated 2017).

Assay: ionization of the phosphonate group (pK values)
Type: physicochemical
Description: [drawing 33] it is isosteric with phosphorylated histidine. Further, the electrostatics of the phosphonoltriazolylalanine mimic those of phosphorylated Histidine. In particular, the phosphonate group of N-methyl-triazolylphosphonic acid is fully ionized at physiological pH (pK1=2.3 and pKA2=5.3), analogous to pHis.

N-methyl-triazolylphosphonic acid
pK1 of the phosphonate group: 2.3
pKA2 of the phosphonate group: 5.3
